Experimental data published in publication PMC10914731, “Homo-BacPROTAC-induced degradation of ClpC1 as a strategy against drug-resistant mycobacteria” (Nature Communications, 2024).
≈ marks a conversion by molar mass, not a printed value. Where “and” joins values, the source holds several entries; their conditions need not be identical. Equal entries are not always repeated. Where two headings read alike, the source gives them in different places.

Tests used:
[1] = assay type: in vitro ADME, Mice
Outline: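 Read-out: parent loss by HPLC-MS/MS, first-order fit, half-life scaled to %Qh (well-stirred liver model). Conditions: 1 µmol/l cpd, 0.5 mg/ml microsomes, 100 mM Tris-HCl pH 7.5, 6.5 mM MgCl2, 1 mM NADPH, 37 °C; acetonitrile stop at multiple times.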

Caco-2 monolayers = assay: in vitro
Outline: (§1)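 Values are bidirectional Caco-2 apparent permeabilities, P(A−B) and P(B−A), given in 10^-6 cm s-1. The efflux ratio divides P(B−A) by P(A−B), and intrinsic permeability averages the two directions.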

[2] = target: ClpC1-NTD substrate, M. tuberculosis ClpC1P1P2 (Mycobacterium tuberculosis, UniProt P9WPC9); assay: biochemical; assay type: biochemical; settings: for DC50: read-out: DC50, Mean
Staphylococcus aureus = assay: MIC ESKAPES panel, Staphylococcus aureus; assay type: cell-based
Protocol: (§2) Minimum inhibitory concentration (MIC) against ESKAPES panel of Gram positive and Gram negative pathogens (Enterococcus faecium, Staphylococcus aureus, Klebsiella pneumoniae, Acinetobacter baumannii, Pseudomonas aeruginosa, Enterobacter cloacae and Salmonella typhimurium [ESKAPES panel]) were determined at the FNDR by the standard broth dilution method [CLSI, M100]. […] Mueller Hinton broth (MHB) medium was used to grow ESKAPES panel strains. The individual cultures were added as 200 μL (inoculum of 3–7 × 10^5 cfu/ml) to the respective assay plates in each well to all columns, except the media control (200 μL of medium). […] The assay plates were incubated at 37 °C, and the results were noted on the 2nd day as turbidometric readout. The clear wells indicated inhibition of growth, while the turbid wells indicated uninhibited growth.

Mtb H37Rv = assay: Minimum bactericidal concentration (MBC), Mtb H37Rv; assay type: cell-based, Mycobacterium tuberculosis
Mtb # 11291 = assay: microbe, parasite or virus in culture; assay type: cell-based; settings: for MIC: read-out: MIC Mtb # 11291
Pseudomonas aeruginosa = assay: MIC ESKAPES panel, Pseudomonas aeruginosa; assay type: cell-based
Protocol: as §2

Mtb (moxR) FNDR-M1 = assay: microbe, parasite or virus in culture; assay type: cell-based
Klebsiella pneumoniae = assay: MIC ESKAPES panel, Klebsiella pneumoniae; assay type: cell-based
Protocol: as §2

[3] = target: His6-tagged ClpC1-NTD substrate, M. smegmatis ClpC1P1P2 (UniProt A0R574+P9WPC9); assay: biochemical; assay type: biochemical
Msm 700084 = assay: microbe, parasite or virus in culture; assay type: cell-based
Enterobacter cloacae = assay: MIC ESKAPES panel, Enterobacter cloacae; assay type: cell-based
Protocol: as §2

[4] = target: endogenous ClpC1 in Msm #607 cells (Mycolicibacterium smegmatis, UniProt A0R574); assay type: cell-based, M. smegmatis
in vitro = settings: human; for Papp A→B: apical to basolateral
Outline: as §1

[5] = Staphylococcus aureus, Gram positive, n = 3 well replicates
[6] = Staphylococcus aureus, Gram-Positive Bacteria, replicates 1-3
[7] = Mycobacterium tuberculosis, mean, n = 2 well replicates
[8] = Mycobacterium tuberculosis, single well replicates
[9] = single well replicates, listed as 12 (UdSBI-4377)
[10] = Gram-Negative Bacteria, replicates 1-3, listed as 12 (UdSBI-4377)
[11] = Pseudomonas aeruginosa, Gram negative, n = 3 well replicates
[12] = Pseudomonas aeruginosa, Gram-Negative Bacteria, replicates 1-3
[13] = M. tuberculosis FNDR-M1, single well replicates
[14] = Mycobacterium tuberculosis, M. tuberculosis FNDR-M1, single well replicates
[15] = Mycobacterium tuberculosis, Mtb (moxR) FNDR-M1, mean ± SD, n = 3 well replicates
[16] = Klebsiella pneumoniae, Gram negative, n = 3 well replicates
[17] = Klebsiella pneumoniae, Gram-Negative Bacteria, replicates 1-3
[18] = Mycolicibacterium smegmatis, 700084, read-out: MIC Msm 700084
[19] = Enterobacter cloacae, Gram negative, n = 3 well replicates
[20] = Enterobacter cloacae, Gram-Negative Bacteria, replicates 1-3

With `COC(c1ccccc1)C1NC(=O)C(C)NC(=O)C(CC(C)CO)N(C)C(=O)C(Cc2cn(C)c3ccccc23)NC(=O)C(Cc2cn(CCCCCn3cc(CC4NC(=O)C(CC(C)C)N(C)C(=O)C(C(C)C)NC(=O)C(C(OC)c5ccccc5)NC(=O)C(C)NC(=O)C(CC(C)CO)N(C)C(=O)C(Cc5cn(C)c6ccccc56)NC4=O)nn3)nn2)NC(=O)C(CC(C)C)N(C)C(=O)C(C(C)C)NC1=O` (stereo not drawn) [Compound 12] the “Microsomal Stability Mice” value ([1]; mouse, microsomes, pH 7.5) was less than 24 %Qh, the “Microsomal Stability Mouse QH” value ([1]; mouse, microsomes, pH 7.5) was less than 24.2% and the “CACO permeability PEAB” value (Caco-2 monolayers; human, Caco-2) was 0.73 ×10⁻⁶ cm/s. The “CACO permeability PEBA” value (Caco-2 monolayers; human, Caco-2) was 0.25 ×10⁻⁶ cm/s, the “Caco-2 Efflux ratio” value (Caco-2 monolayers; human, Caco-2) was 0.3 and the “Caco-2 Int. Perm” value (Caco-2 monolayers; human, Caco-2) was 0.5. For the same compound, the “Caco-2 permeability P (A-B)” value (Caco-2 monolayers; human, Caco-2) was 0.7, the “Caco-2 permeability P (B-A)” value (Caco-2 monolayers; human, Caco-2) was 0.2 and the DC50 [2] was 7.1 µM. For the same compound, the MIC (Staphylococcus aureus; Gram-Positive Bacteria, replicates 1-3, listed as 12 (UdSBI-4377)) was greater than 50 µM, the MIC (Staphylococcus aureus; [5]) was greater than 50 µM and the MIC (Staphylococcus aureus; [6]) was greater than 99 µg/mL. The “colony growth after replating (MBC assay)” value (Mtb H37Rv) was “did not form any colonies at concentrations at or above the MIC value”, the MBC (Mtb H37Rv; Mycobacterium tuberculosis, H37RV, read-out: MBC (from Set 3) Mtb H37Rv) was 0.1 µM and 0.2 µg/mL and the MBC (Mtb H37Rv; Mycobacterium tuberculosis, H37RV, read-out: MBC Mtb H37Rv) was 0.1 µM and 0.2 µg/mL. The MIC (Mtb # 11291; [7]) was < 0.1 µM and < 0.2 µg/mL, the MIC (Mtb # 11291; [8]) was < 0.1 µM and < 0.19 µg/mL and the “MIC Mtb # 11291” value (Mtb # 11291; [9]) was less than 0.19 µg/mL. It also gave an MIC (Mtb # 11291; [9]) of less than 0.1 µM, an MIC (Pseudomonas aeruginosa; [10]) greater than 50 µM and an MIC (Pseudomonas aeruginosa; [11]) greater than 50 µM. The MIC (Pseudomonas aeruginosa; [12]) was greater than 99 µg/mL, the MIC (Mtb (moxR) FNDR-M1; [13]) was 0.195 µM (≈ 0.386 µg/mL) and the MIC (Mtb (moxR) FNDR-M1; [14]) was 0.195 µM (≈ 0.386 µg/mL). For the same compound, the MIC (Mtb (moxR) FNDR-M1; [15]) was 0.2 µM (≈ 0.396 µg/mL), the MIC (Klebsiella pneumoniae; [10]) was greater than 50 µM and the MIC (Klebsiella pneumoniae; [16]) was greater than 50 µM. The MIC (Klebsiella pneumoniae; [17]) was greater than 99 µg/mL, the DC50 ([3]; read-out: DC50, single measurements) was 10.3 µM and 9.3 µM and 5.3 µM and 8.3 µM and 7.6 µM and the DC50 ([3]; read-out: DC50 M.smegmatis ClpC1P1P2 Mean) was 8.4 µM. The Dmax ([3]; read-out: DMax M.smegmatis ClpC1P1P2 Mean) was 81%, the MIC (Msm 700084; Mycolicibacterium smegmatis, 700084, single determinations, read-out: Msm 700084 MIC) was greater than 50 µM and the MIC (Msm 700084; [18]) was greater than 50 µM. The MIC (Enterobacter cloacae; [19]) was greater than 50 µM, the MIC (Enterobacter cloacae; [20]) was greater than 99 µg/mL and the MIC (Enterobacter cloacae; [10]) was greater than 50 µM. It also gave a DC50 ([4]; read-out: DC50, Mean) of 0.17 µM and a DC50 ([4]; read-out: average DC50, endogenous ClpC1 degradation) of 0.17 ± 0.1 µM.
With `CO[C@H](c1ccccc1)[C@@H]1NC(=O)[C@H](C)NC(=O)[C@H](C[C@@H](C)CO)N(C)C(=O)[C@H](Cc2cn(Cc3cn(CCOCCn4cc(Cn5cc(C[C@@H]6NC(=O)[C@H](C(C)C)NC(=O)[C@H](CC(C)C)N(C)C(=O)[C@H](C(C)C)NC(=O)[C@H]([C@H](OC)c7ccccc7)NC(=O)[C@H](C)NC(=O)[C@H](C[C@@H](C)CO)N(C)C6=O)c6ccccc65)nn4)nn3)c3ccccc23)NC(=O)[C@H](C(C)C)NC(=O)[C@H](CC(C)C)N(C)C(=O)[C@H](C(C)C)NC1=O` [Compound 6] the “Microsomal Stability Mouse QH” value ([1]; Mouse) was 42.900%, the “Microsomal Stability Mice” value ([1]; clearance in microsomes) was 43 %Qh and the Papp A→B (in vitro; Caco-2, CACO permeability PEAB) was less than 2.6 ×10⁻⁶ cm/s. The Papp A→B (in vitro; Caco-2, Caco-2 permeability P (A-B)) was less than 1.7 ×10⁻⁶ cm/s, the Papp B→A (in vitro; Caco-2, Caco-2 permeability P (B-A), basolateral to apical) was 2.4 ×10⁻⁶ cm/s and the “Caco-2 Int. Perm” value (Caco-2 monolayers; mean value of P(A−B) and P(B−A)) was 2.1 10-6 cm s-1. The “1-Dmax, single measurements” value ([2]; Mtb, Measurement 1-4) was 67.3% and 57.3% and 45.9% and 46.4%, the 1-Dmax (percent substrate remaining at maximal degradation) ([2]; Mtb, mean of the measurements, read-out: 1-Dmax, Mean) was 54% and the DC50 ([2]; Mtb, mean of the measurements) was 5.8 µM. The “1-Dmax, single measurements” value ([3]; Msm, Measurement 1-6) was 73.6% and 67.7% and 87.3%, the 1-Dmax (percent substrate remaining at maximal degradation) ([3]; Msm, Measurement 1-6, read-out: 1-Dmax, single measurements) was 83.7% and the 1-Dmax (percent substrate remaining at maximal degradation) ([3]; Msm, mean of the measurements, read-out: 1-Dmax, Mean) was 78%. It also gave a DC50 ([3]; Msm, mean of the measurements, read-out: DC50, Mean) of 7.5 µM and an MIC (Msm 700084; [18]) of 20.8 ± 15.1 µM (≈ 42.4 µg/mL).
In the case of `COc1c(N2C[C@@H]3CCCN[C@@H]3C2)c(F)cc2c(=O)c(C(=O)O)cn(C3CC3)c12` [Moxifloxacin, reference compound], the MIC (Staphylococcus aureus; [5]) is reported as 0.3 µM, the MIC (Staphylococcus aureus; [6]) is reported as 0.31 µM and 0.125 µg/mL and the MBC (Mtb H37Rv; Mycobacterium tuberculosis, H37RV; individual example; read-out: MBC Mtb H37Rv) is reported as 0.3 µM and 0.1 µg/mL. The MBC (Mtb H37Rv; Mycobacterium tuberculosis, H37RV; read-out: MBC (from Set 3) Mtb H37Rv) was 0.13 µg/mL and 0.31 µM, the MIC (Mtb # 11291; [7]) was 0.2 µM (≈ 0.0803 µg/mL) and the MIC (Mtb # 11291; [8]) was 0.24 µM (≈ 0.0963 µg/mL). For the same compound, the “MIC Mtb # 11291” value (Mtb # 11291; single well replicates) was 0.10 µg/mL (≈ 0.249 µM), the MIC (Mtb # 11291; single well replicates) was 0.24 µM (≈ 0.0963 µg/mL) and the MIC (Pseudomonas aeruginosa; [11]) was 2.5 µM. The MIC (Pseudomonas aeruginosa; [12]) was 2.49 µM and 1 µg/mL, the MIC (Mtb (moxR) FNDR-M1; [13]) was 19.93 µM (≈ 8 µg/mL) and the MIC (Mtb (moxR) FNDR-M1; [14]) was 19.9 µM (≈ 8 µg/mL). For the same compound, the MIC (Mtb (moxR) FNDR-M1; [15]) was 19.9 µM (≈ 7.99 µg/mL), the MIC (Klebsiella pneumoniae; [16]) was 1.3 µM and the MIC (Klebsiella pneumoniae; [17]) was 1.25 µM and 0.5 µg/mL. For the same compound, the MIC (Enterobacter cloacae; [19]) was 0.3 µM and the MIC (Enterobacter cloacae; [20]) was 0.31 µM and 0.125 µg/mL.
